Common to all, as to type: biochemical
For one test, the target named is T1, human mu opioid receptor (Homo sapiens, UniProt P35372).
T1 construct: expressed in transfected cells; host or cells: CHO cells (membrane homogenates)
Put plainly: Inhibition of agonist (DAMGO) stimulated [35S]GTPγS binding, apparent affinity (Ke). The protocol: (§1) Determination of apparent affinity (Ke). The ability of a single concentration of test compound to shift an agonist dose response curve to the right was used to determine its Ke. Agonist activity was determined using [^35S]GTP-γ-S binding in CHO cell membrane homogenates expressing either the human mu, kappa or delta opioid receptor. The subtype selective agonists (D-Ala^2, MePhe^4, Gly-ol^5)enkephalin (DAMGO, mu receptor), D-Pen2,D-Pen5]-enkephalin (DPDPE, delta receptor) or U69,593 (kappa receptor) were run as appropriate. The assays were run in triplicate in 1.4 mL polypropylene tubes (Matrix Technologies, Hudson, N.H.) in 96-well format. Each assay tube contained membrane homogenate, one of seven concentrations of agonist or agonist+test compound, 0.1 nM [^35S]GTP-γ-S and 10 μM GDP in a 50 mM HEPES buffer (pH 7.4). Basal [^35S]GTP-γ-S binding was determined in samples without agonist or test compound. All samples were incubated at room temperature for one hour after which bound radioligand was separated from free via rapid vacuum filtration over GF-B filters with a Brandel Scientific (Gaithersburg, Md.) 96-well harvester. Bound radioactivity was determined with a TopCount 12-detector instrument (Packard Instruments) using standard scintillation counting techniques. The binding data from each assay plate were normalized to basal binding prior to analysis. The EC50s were calculated from a three-parameter logistic curve fit to the data with Prism (version 3.0, GraphPad Software, Inc., San Diego, Calif.).
A general note: Binding of GTPγS marks nucleotide exchange on a G protein.

In test [1] the target is T2, human delta opioid receptor (Homo sapiens, UniProt P41143).
T2 construct: expressed in transfected cells; host or cells: CHO cells (membrane homogenates)
As to the kind of experiment: Inhibition of agonist (DPDPE) stimulated [35S]GTPγS binding, apparent affinity (Ke). As to the method: as §1

Test [2] addresses T3, human kappa opioid receptor (Homo sapiens, UniProt P41145).
T3 construct: expressed in transfected cells; host or cells: CHO cells (membrane homogenates)
Put plainly: Inhibition of agonist (U69,593) stimulated [35S]GTPγS binding, apparent affinity (Ke). Particulars: for δ/κ / μ/κ: ratio of Ke values; for δ/κ: δ over κ; for μ/κ: μ over κ. The protocol:
as §1

Where [3] appears, read: cloned human μ receptor, CHO cell membrane homogenates, agonist DAMGO, 10 μM GDP, mean ± SE.
The mark [4] stands for this setting: cloned human δ receptor, CHO cell membrane homogenates, agonist DPDPE, 10 μM GDP, mean ± SE.
Where [5] appears, read: cloned human κ receptor, CHO cell membrane homogenates, agonist U69,593, 10 μM GDP, mean ± SE.
The mark [6] stands for this setting: cloned human μ receptor, CHO cell membrane homogenates, agonist DAMGO, 10 μM GDP, mean ± SE, read-out: μ, DAMGO Ke.
Setting [7] is: cloned human κ receptor, CHO cell membrane homogenates, agonist U69,593, 10 μM GDP, mean ± SE, read-out: κ, U69,593 Ke.

These results are taken from patent US7476679B2, “Octahydroisoquinoline compounds as opioid receptor modulators” (Research Triangle Institute, priority 2005, dated 2009).

Read-outs that look alike come from different tables or passages of the source.

T3 sequence (P41145 whole entry): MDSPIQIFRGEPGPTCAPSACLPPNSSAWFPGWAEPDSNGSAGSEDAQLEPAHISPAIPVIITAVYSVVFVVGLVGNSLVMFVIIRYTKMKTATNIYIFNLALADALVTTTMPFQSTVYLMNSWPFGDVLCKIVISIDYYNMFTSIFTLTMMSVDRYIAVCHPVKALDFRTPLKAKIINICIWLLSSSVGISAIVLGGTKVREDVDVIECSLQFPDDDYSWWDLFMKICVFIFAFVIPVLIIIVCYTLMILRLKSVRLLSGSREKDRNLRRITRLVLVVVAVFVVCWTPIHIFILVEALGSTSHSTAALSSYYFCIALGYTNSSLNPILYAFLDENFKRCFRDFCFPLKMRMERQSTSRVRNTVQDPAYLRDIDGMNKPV
T1 sequence (P35372 whole entry): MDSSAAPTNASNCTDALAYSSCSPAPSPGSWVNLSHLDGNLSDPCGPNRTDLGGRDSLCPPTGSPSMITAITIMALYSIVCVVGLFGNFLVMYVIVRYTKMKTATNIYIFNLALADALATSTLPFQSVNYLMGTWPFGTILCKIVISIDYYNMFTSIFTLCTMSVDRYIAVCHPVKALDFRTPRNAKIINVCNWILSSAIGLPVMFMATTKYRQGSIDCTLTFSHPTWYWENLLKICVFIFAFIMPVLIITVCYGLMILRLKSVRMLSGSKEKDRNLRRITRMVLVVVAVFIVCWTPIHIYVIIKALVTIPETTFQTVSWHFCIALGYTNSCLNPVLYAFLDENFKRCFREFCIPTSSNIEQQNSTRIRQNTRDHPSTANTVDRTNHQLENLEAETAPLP
T2 sequence (P41143 whole entry): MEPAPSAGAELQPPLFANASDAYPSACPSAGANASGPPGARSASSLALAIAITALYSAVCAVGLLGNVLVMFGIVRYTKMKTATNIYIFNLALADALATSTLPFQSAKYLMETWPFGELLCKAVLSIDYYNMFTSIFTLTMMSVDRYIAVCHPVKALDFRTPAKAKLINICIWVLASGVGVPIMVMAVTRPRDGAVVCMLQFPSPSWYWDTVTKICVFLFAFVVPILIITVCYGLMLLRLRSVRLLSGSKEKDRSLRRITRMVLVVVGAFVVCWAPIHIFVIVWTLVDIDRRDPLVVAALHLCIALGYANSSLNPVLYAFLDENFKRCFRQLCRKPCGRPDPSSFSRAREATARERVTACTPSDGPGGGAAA

On to `CN1CCC2(c3cccc(O)c3)CCCCC2(C)C1` (centres unmarked) [6a, N-Methyl-4a-(3-hydroxyphenyl)-8a-methyloctahydroisoquinoline], for which the Kb was determined as 99.4 ± 28.3 nM on human mu opioid receptor; 477 ± 137 nM in test [1] (cloned human δ receptor, CHO cell membrane homogenates, agonist DPDPE, 10 μM GDP, mean ± SE, read-out: δ, DPDPE Ke); 3.37 ± 0.47 nM in test [2]. Besides, the δ/κ in test [2] is 141. Moreover, the μ/κ in test [2] turned out to be 29.

For the molecule `CC12CCC(NC(=O)c3cc4ccccc4s3)CC1(c1cccc(O)c1)CCN(CCCc1ccccc1)C2` (centres unmarked) [6g], the “μ, DAMGO Ke” value at human mu opioid receptor (setting [3]) turned out to be 11.3 ± 2.0 nM. The “δ, DPDPE Ke” value in test [1] (setting [4]) was 1.01 ± 0.22 nM. Moreover, in test [2] (setting [5]), the “κ, U69,593 Ke” value stood at 0.46 ± 0.13 nM. In test [2], the δ/κ was 2 and the μ/κ is recorded as 25.

With `CC12CCCCC1(c1cccc(O)c1)CCN(CCc1ccccc1)C2` (centres unmarked) [6b, N-Phenethyl-4a-(3′-hydroxyphenyl)-8a-methyloctahydroisoquinoline], the Kb came out at 0.84 ± 0.22 nM on human mu opioid receptor (setting [6]), 18.9 ± 5.2 nM in test [1] and 2.84 ± 0.97 nM in test [2] (setting [7]). Also, in test [2], the δ/κ came to 7. In test [2], the μ/κ is reported as 0.3.

With `CC12CCCCC1(c1cccc(O)c1)CCN(CCCc1ccccc1)C2` (centres unmarked) [6c, N-(3-Phenpropyl)-4a-(3-hydroxyphenyl)-8a-methyloctahydroisoquinoline], at human mu opioid receptor (setting [3]), the “μ, DAMGO Ke” value is reported as 0.80 ± 0.10 nM. Also, the “δ, DPDPE Ke” value in test [1] (setting [4]) came out at 12.4 ± 2.9 nM. Further, in test [2] (setting [5]), the “κ, U69,593 Ke” value came to 1.03 ± 0.14 nM. Further, in test [2], the δ/κ was 12 and the μ/κ came out at 0.8.

Consider `CC12CCC(NC(=O)C3(c4ccccc4)CCCC3)CC1(c1cccc(O)c1)CCN(CCCc1ccccc1)C2` (centres unmarked) [6f, 1-Phenylcyclopentanecarboxylic Acid [4a-(3-Hydroxyphenyl)-8a-methyl-2-(3-phenylpropyl)octahydroisoquinolin-6-yl]amide], for which the results for the Kb (at human mu opioid receptor (setting [6]); in test [1]; in test [2] (setting [7])) were 1.46 ± 0.15 nM, 6.46 ± 2.3 nM and 1.93 ± 0.48 nM, respectively. The δ/κ in test [2] is on record as 3. Further, the μ/κ in test [2] is reported as 0.8.

In the case of `CC12CCC(NC(=O)CCN3CCCCC3)CC1(c1cccc(O)c1)CCN(CCCc1ccccc1)C2` (centres unmarked) [6d, N-(4a-(3-Hydroxyphenyl)-8a-methyl-2-(3-phenylpropyl)octahydroisoquinolin-6-yl]-3-piperidin-1-yl-propionamide], the Kb at human mu opioid receptor (setting [6]) was found to be 41.7 ± 7.8 nM; in test [1], 12.3 ± 3.1 nM; in test [2] (setting [7]), 0.27 ± 0.08 nM. Further, the δ/κ in test [2] amounted to 46. The μ/κ in test [2] came out at 154.

With `CC12CCC(NC(=O)CCN3CCc4ccccc4C3)CC1(c1cccc(O)c1)CCN(CCCc1ccccc1)C2` (centres unmarked) [6e, 3-(3,4-Dihydro-1H-isoquinolin-2-yl)-N-(4a-(3-hydroxyphenyl)-8a-methyl-2-(3-phenylpropyl)octahydroisoquinolin-6-yl]propionamide], the values for the Kb (on human mu opioid receptor (setting [6]); in test [1]; in test [2] (setting [7])) were 9.82 ± 3.7 nM, 4.56 ± 1.2 nM and 0.22 ± 0.02 nM, respectively. Besides, the δ/κ in test [2] is recorded as 21. Also, the μ/κ in test [2] is on record as 45.
